As usually defined, the IC50 is the concentration needed to halve the response being measured. A word on the pKa: it is the negative logarithm of the acid dissociation constant. A low value points to a stronger acid or weaker base. One may read the logD as lipophilicity at a set pH, counting ionised and neutral species. Read a high logD as higher lipophilicity. For orientation: solubility means the concentration that dissolves in the medium under given conditions. Read a low solubility as a poorly soluble substance. For orientation: Papp A→B means the apparent permeability from the apical to the basolateral side of a cell layer. As a reminder, the bioavailability is the share of a dose that reaches the circulation, judged against a reference dose that is usually intravenous. A higher bioavailability goes with much systemic uptake. A word on the thermodynamic solubility: it is solubility found after equilibrating the solid with the medium. As a reminder, the CL/F is clearance divided by bioavailability, as obtained after extravascular dosing. As a reminder, the AUC is concentration integrated over time. Broadly, the Cmax is the highest concentration seen after dosing.

The values that follow come from ChEMBL document CHEMBL4033707, “Discovery of a novel aminopyrazine series as selective PI3Kα inhibitors” (Bioorg Med Chem Lett, 2017).

SMILES strings stand for the structures. Values after ≈ are worked out from the molar mass of the structure shown. Active and inactive are the calls of the source. The calls are words filed in the database; no cut-off is given here.

The target of data set [1] is Phosphatidylinositol 4,5-bisphosphate 3-kinase catalytic subunit alpha isoform (Homo sapiens, UniProt P42336). Kind of data set: Inhibition of PI3Kalpha (unknown origin).
Chain of Phosphatidylinositol 4,5-bisphosphate 3-kinase catalytic subunit alpha isoform (P42336 whole entry, canonical isoform): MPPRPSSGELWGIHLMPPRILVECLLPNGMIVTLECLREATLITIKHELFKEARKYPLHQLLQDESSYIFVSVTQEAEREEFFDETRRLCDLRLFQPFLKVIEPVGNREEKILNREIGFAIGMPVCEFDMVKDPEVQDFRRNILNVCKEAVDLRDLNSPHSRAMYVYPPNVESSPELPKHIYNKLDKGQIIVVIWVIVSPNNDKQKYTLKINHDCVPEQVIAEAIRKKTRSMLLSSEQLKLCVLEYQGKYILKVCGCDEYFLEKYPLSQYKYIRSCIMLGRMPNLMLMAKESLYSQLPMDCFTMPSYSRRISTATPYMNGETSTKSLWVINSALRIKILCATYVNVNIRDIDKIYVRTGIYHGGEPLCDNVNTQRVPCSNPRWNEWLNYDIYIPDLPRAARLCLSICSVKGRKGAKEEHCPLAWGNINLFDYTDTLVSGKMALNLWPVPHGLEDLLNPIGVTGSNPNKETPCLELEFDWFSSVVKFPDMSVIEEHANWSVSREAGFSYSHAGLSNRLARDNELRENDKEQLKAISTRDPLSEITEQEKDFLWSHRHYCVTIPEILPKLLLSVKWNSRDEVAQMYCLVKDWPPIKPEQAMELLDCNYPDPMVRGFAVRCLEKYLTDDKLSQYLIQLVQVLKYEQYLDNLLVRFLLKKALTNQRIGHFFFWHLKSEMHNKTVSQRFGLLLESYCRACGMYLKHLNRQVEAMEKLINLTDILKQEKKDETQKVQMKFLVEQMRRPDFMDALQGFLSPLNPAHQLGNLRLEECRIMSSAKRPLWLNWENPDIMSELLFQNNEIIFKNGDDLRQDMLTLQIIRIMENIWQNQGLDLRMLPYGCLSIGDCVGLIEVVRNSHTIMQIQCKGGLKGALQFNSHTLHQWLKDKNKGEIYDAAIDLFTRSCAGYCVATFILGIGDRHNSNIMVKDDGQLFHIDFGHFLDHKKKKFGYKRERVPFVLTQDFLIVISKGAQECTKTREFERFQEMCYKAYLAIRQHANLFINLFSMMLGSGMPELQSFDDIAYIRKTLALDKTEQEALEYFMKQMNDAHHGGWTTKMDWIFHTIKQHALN
Data set [2] concerns the target T1, Phosphatidylinositol 4,5-bisphosphate 3-kinase catalytic subunit beta isoform (Homo sapiens, UniProt P42338). Kind of data set: Inhibition of PI3Kbeta (unknown origin).
Data set [3] in a line: Inhibition of PI3Kalpha mutant in human BT474 cells assessed as reduction in AKT phosphorylation at Thr308. The data set is classed as cell-based. As to conditions: BT-474.
The target of data set [4] is T1, Phosphatidylinositol 4,5-bisphosphate 3-kinase catalytic subunit beta isoform. The data set is described as follows: Inhibition of PI3Kbeta in PTEN-deficient human MDA-MB-468 cells assessed as reduction in AKT phosphorylation at Ser473.
The nature of data set [5]: Dissociation constant, pKa of the compound. The data set is classed as physicochemical.
Data set [6] can be described thus: Octanol-buffer partition coefficient, log D of the compound at pH 7.4 by shake-flask method. The data set is classed as physicochemical.
Data set [7] is described as follows: Aqueous solubility of the compound in phosphate buffer at pH 7.4. The data set is classed as physicochemical.
Data set [8] in a line: Apparent permeability of the compound across apical side to basolateral side in human Caco2 cells. As to conditions: Caco-2. The data set is classed as ADME, cell-based.
Data set [9] is described as follows: Clearance in Han Wistar rat at 4 umol/kg, iv or 10 umol/kg, po. The data set is classed as ADME, organism-based. As to conditions: in vivo.
Data set [10] can be described thus: Volume of distribution in Han Wistar rat at 4 umol/kg, iv or 10 umol/kg, po. The data set is classed as ADME, organism-based. As to conditions: in vivo.
A short description of data set [11]: Oral bioavailability in Han Wistar rat at 10 umol/kg. The data set is classed as ADME, organism-based. As to conditions: in vivo.
Data set [12] can be described thus: Aqueous solubility of the compound in phosphate buffer at pH 7.4 using crystalline sample. The data set is classed as physicochemical.
A short description of data set [13]: Clearance in Beagle dog at 1 umol/kg, po. The data set is classed as ADME, Canis lupus familiaris. As to conditions: in vivo.
A further data set concerns Canis familiaris. The data set is described as follows: Volume of distribution in Beagle dog at 1 umol/kg, po. As to conditions: in vivo. The data set is classed as ADME, Canis lupus familiaris.
Data set [14] in a line: Oral bioavailability in Beagle dog at 1 umol/kg. The data set is classed as ADME, organism-based, Canis lupus familiaris. As to conditions: in vivo.
Data set [15] in a line: AUC in mouse at 100 mg/kg, po. The data set is classed as ADME, organism-based. As to conditions: in vivo.
Data set [16] is described as follows: Cmax in mouse at 100 mg/kg, po. The data set is classed as ADME, organism-based. More on the design: dose 100 mg/kg, route oral. As to conditions: in vivo.
The subject of data set [17] is MCF7. Kind of data set: Anti-tumor activity against human MCF7 cells harboring PI3KCA E545K mutant xenografted in Swiss nu/nu mouse assessed as tumor growth inhibition at 50 mg/kg, po administered twice daily for 21 days measured post last dose relative to control. The data set is classed as functional. As to conditions: 504 h, read-out: TGI. In general terms: Xenograft models place foreign cells or tissue in a host animal.

Data set [18] has as its system MCF7. The data set is described as follows: Anti-tumor activity against human MCF7 cells harboring PI3KCA E545K mutant xenografted in Swiss nu/nu mouse assessed as tumor growth inhibition at 25 mg/kg, po administered twice daily for 21 days measured post last dose relative to control. The data set is classed as functional. As to conditions: 504 h, read-out: TGI.
The subject of data set [19] is MCF7. Kind of data set: Anti-tumor activity against human MCF7 cells harboring PI3KCA E545K mutant xenografted in Swiss nu/nu mouse assessed as tumor growth inhibition at 10 mg/kg, po administered twice daily for 21 days measured post last dose relative to control. The data set is classed as functional. As to conditions: 504 h, read-out: TGI.
Data set [20] addresses T2, Phosphatidylinositol 4,5-bisphosphate 3-kinase catalytic subunit gamma isoform (Homo sapiens, UniProt P48736). The data set is described as follows: Inhibition of PI3Kgamma (unknown origin).
Data set [21] deals with Phosphatidylinositol 4,5-bisphosphate 3-kinase catalytic subunit delta isoform (Homo sapiens, UniProt O00329). Kind of data set: Inhibition of PI3Kdelta (unknown origin).
Data set [22] deals with Phosphatidylinositol 4-kinase beta (Homo sapiens, UniProt Q9UBF8). The data set is described as follows: Inhibition of human PI4KB (1 to 801 residues) by ADP Glo HTS assay. On the technique in general: ADP-Glo first removes unused ATP, then detects ADP through luciferase.
Data set [23] addresses Phosphoinositide 3-kinase regulatory subunit 4 (Homo sapiens, UniProt Q99570). The data set is described as follows: Inhibition of VPS15 (unknown origin).
Data set [24] addresses Serine/threonine-protein kinase mTOR (Homo sapiens, UniProt P42345). The data set is described as follows: Inhibition of m-TOR (unknown origin).
Data set [25] addresses Choline kinase alpha (Homo sapiens) (UniProt P35790). Kind of data set: Inhibition of human CHKalpha (1 to 457 residues) at 50 uM by ADP Glo HTS assay.
Data set [26] deals with Choline/ethanolamine kinase (Homo sapiens) (UniProt Q9Y259). The data set is described as follows: Inhibition of human CHKbeta (1 to 395 residues) at 50 uM by ADP Glo HTS assay.
Chain of Choline/ethanolamine kinase (Homo sapiens) (Q9Y259 whole entry, the tested form may be a part): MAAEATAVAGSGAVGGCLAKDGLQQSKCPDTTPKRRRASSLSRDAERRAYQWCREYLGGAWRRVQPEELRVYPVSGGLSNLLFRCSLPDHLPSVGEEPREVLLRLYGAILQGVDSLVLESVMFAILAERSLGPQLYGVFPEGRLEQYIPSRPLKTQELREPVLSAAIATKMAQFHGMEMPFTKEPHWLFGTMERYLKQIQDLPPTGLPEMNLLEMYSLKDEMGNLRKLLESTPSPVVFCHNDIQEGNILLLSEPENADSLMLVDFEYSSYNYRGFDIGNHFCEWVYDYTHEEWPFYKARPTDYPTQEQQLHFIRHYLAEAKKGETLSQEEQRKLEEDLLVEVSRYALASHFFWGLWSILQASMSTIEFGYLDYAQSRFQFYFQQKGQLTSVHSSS
Data set [27] has as its target Diacylglycerol kinase beta (Homo sapiens) (UniProt Q9Y6T7). The data set is described as follows: Inhibition of human DGKbeta (1 to 804 residues) at 50 uM by ADP Glo HTS assay.
The target of data set [28] is Diacylglycerol kinase gamma (Homo sapiens) (UniProt P49619). The data set is described as follows: Inhibition of human DGKgamma (1 to 752 residues) at 50 uM by ADP Glo HTS assay.
In data set [29] the target is Diacylglycerol kinase zeta (Homo sapiens) (UniProt Q13574). Kind of data set: Inhibition of human DGKzeta (1 to 929 residues) at 50 uM by ADP Glo HTS assay.
Chain of Diacylglycerol kinase zeta (Homo sapiens) (Q13574 whole entry, the tested form may be a part): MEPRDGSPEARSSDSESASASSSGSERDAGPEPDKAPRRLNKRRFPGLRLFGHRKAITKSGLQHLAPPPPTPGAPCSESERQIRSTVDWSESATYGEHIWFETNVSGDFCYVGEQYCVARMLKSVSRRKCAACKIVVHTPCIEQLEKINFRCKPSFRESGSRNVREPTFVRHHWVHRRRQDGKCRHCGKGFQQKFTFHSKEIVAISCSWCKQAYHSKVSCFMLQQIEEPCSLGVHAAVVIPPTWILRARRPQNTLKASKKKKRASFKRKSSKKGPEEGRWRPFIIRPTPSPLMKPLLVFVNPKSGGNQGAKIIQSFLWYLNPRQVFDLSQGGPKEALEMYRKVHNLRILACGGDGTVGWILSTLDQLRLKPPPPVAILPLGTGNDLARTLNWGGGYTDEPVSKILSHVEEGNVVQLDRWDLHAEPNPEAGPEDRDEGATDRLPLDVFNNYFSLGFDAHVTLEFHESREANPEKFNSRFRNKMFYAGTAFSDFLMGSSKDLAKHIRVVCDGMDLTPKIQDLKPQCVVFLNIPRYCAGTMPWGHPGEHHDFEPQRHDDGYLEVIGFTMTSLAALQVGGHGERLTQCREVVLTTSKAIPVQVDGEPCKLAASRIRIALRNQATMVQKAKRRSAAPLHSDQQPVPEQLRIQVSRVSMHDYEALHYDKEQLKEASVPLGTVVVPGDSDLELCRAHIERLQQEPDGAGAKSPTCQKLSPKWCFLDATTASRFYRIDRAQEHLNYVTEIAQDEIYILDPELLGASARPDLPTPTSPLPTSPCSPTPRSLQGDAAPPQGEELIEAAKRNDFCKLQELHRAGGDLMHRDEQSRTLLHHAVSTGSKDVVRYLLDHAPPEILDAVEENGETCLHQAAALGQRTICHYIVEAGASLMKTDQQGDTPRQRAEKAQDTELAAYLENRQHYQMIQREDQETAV
Data set [30] has as its target Phosphatidylinositol 3-kinase regulatory subunit alpha (Homo sapiens) (UniProt P27986). Kind of data set: Inhibition of human PI3K p85alpha (1 to 724 residues) at 50 uM by ADP Glo HTS assay.
Data set [31] has as its system Phosphatidylinositol 4,5-bisphosphate 3-kinase catalytic subunit alpha isoform (Homo sapiens), P42336 [E542K]. The data set is described as follows: Inhibition of human PI3Kalpha (2 to 1068 residues)/p85 (1 to 724 residues) E542K mutant at 50 uM by ADP Glo HTS assay.
Data set [32] deals with Phosphatidylinositol 4,5-bisphosphate 3-kinase catalytic subunit alpha isoform (Homo sapiens), P42336 [E545K]. Kind of data set: Inhibition of human PI3Kalpha (2 to 1068 residues)/p85 (1 to 724 residues) E545K mutant at 50 uM by ADP Glo HTS assay.
Data set [33] addresses Sphingosine kinase 1 (Homo sapiens) (UniProt Q9NYA1). The data set is described as follows: Inhibition of human SphK1 (1 to 384 residues) at 50 uM by […] HTS assay.
The target in data set [34] is Phosphatidylinositol 3-kinase regulatory subunit beta (Homo sapiens) (UniProt O00459). The data set is described as follows: Inhibition of human PI3K p85beta (1 to 724 residues) at 50 uM by ADP Glo HTS assay.
Chain of Phosphatidylinositol 3-kinase regulatory subunit beta (Homo sapiens) (O00459 whole entry, the tested form may be a part, canonical isoform): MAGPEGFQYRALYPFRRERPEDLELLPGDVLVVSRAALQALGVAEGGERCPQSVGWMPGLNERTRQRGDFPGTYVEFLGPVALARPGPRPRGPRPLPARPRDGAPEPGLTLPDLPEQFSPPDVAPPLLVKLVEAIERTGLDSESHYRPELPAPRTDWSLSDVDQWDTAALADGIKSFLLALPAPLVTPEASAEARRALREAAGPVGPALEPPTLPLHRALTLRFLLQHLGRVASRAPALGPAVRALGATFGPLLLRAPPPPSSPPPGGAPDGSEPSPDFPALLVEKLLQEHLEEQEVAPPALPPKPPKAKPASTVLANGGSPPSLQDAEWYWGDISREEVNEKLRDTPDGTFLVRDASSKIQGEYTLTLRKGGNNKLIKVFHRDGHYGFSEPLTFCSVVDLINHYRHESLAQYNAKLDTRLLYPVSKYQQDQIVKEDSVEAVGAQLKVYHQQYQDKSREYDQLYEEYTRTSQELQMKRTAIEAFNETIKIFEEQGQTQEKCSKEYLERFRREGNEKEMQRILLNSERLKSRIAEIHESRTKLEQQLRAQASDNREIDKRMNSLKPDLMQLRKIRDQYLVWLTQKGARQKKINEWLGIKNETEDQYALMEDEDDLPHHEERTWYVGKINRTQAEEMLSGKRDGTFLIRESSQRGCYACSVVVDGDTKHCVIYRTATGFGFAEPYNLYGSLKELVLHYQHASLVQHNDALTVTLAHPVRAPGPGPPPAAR
Data set [35] deals with T2, Phosphatidylinositol 4,5-bisphosphate 3-kinase catalytic subunit gamma isoform. The data set is described as follows: Inhibition of human PI3Kgamma (2 to 1102 residues) at 50 uM by ADP Glo HTS assay.
Data set [36] concerns the target Sphingosine kinase 2 (Homo sapiens) (UniProt Q9NRA0). Kind of data set: Inhibition of human SPHK 2 (1 to 654 residues) at 50 uM by ADP Glo HTS assay.

T1 sequence (P42338 whole entry, canonical isoform): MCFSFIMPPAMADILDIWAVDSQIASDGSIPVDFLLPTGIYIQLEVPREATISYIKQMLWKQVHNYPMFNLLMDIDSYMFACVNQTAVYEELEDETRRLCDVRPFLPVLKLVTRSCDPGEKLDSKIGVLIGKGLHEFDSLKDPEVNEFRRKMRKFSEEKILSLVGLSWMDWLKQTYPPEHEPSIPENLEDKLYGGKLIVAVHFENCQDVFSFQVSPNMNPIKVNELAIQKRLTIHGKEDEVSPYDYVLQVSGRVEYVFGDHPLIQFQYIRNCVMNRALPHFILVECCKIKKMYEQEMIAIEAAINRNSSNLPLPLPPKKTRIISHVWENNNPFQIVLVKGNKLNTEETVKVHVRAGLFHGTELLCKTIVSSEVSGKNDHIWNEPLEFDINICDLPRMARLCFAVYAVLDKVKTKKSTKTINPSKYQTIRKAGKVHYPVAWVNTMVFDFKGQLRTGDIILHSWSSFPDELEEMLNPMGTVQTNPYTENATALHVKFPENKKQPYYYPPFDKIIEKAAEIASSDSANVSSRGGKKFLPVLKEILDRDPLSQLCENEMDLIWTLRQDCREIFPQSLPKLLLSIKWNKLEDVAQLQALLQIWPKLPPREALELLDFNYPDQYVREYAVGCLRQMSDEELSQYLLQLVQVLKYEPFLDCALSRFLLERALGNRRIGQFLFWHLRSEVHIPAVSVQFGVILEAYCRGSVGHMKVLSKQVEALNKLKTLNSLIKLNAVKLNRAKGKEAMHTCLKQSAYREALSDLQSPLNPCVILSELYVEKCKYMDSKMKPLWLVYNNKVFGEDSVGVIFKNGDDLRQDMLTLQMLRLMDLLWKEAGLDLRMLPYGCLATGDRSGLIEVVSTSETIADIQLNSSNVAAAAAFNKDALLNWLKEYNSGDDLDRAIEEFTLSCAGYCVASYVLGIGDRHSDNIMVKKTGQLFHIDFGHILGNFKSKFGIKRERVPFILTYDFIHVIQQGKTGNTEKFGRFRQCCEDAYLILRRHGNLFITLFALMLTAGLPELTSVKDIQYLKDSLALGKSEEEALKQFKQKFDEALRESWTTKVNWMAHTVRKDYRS
Chain of Sphingosine kinase 2 (Homo sapiens) (Q9NRA0 whole entry, the tested form may be a part): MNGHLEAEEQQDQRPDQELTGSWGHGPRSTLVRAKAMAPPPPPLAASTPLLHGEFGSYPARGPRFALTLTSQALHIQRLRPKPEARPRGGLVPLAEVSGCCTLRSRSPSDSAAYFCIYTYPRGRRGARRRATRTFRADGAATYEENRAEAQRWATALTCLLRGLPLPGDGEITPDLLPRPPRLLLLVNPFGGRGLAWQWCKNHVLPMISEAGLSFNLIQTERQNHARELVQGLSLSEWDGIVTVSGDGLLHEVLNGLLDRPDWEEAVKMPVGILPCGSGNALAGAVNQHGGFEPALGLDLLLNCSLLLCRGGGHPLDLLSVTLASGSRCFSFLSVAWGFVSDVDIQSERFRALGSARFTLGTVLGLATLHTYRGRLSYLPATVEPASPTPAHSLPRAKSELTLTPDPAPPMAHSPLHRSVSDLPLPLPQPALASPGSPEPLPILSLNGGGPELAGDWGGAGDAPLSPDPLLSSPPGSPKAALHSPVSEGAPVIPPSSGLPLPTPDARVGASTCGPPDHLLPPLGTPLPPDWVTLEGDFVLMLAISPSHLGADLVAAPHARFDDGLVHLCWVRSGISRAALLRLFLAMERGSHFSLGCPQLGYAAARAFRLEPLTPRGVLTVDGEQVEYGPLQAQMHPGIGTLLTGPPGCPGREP

As to `Cc1nc(N)c(-c2cnn(C3CCN(C)CC3)n2)nc1-c1cnc2ccccn12`, the IC50 in data set [1] was found to be 8 nM; in data set [2], 76 nM; in [3] it was 100 nM; in [4], 550 nM.

`CN(C)CC(=O)N1CCC(n2cc(-c3cnc(N)c(-n4nnc5ccccc54)n3)cn2)CC1`: the IC50 in data set [3] was determined as 58 nM.

As to `CNC(=O)c1nc(-c2nc(-c3cnn4ccccc34)c(C)nc2N)n(C)n1`, the IC50 in [1] was below 10 nM; in data set [2] it was 24 to 180 nM; in data set [3] it was 24 nM; in data set [4], 1500 nM. In data set [5], this compound yielded a pKa of 2.3. This compound returned a logD in data set [6] of 2.3. In data set [7], this compound registered a solubility of 7 µM (≈ 2.54 µg/mL). In addition, the Papp A→B in data set [8] came out at 36 ×10⁻⁶ cm/s. Besides, in [9], the clearance came to 27 mL/min/kg. The compound also had a Vd in data set [10] of 0.8 L/kg. Moreover, in data set [11], the bioavailability was determined as 9%.

For the compound `Cc1nc(N)c(-c2nc(C3CCN(C)CC3)nn2C)nc1-c1cnc2ccccn12`, the IC50 in [1] turned out to be 5 nM; in data set [2], 32 nM; in [3] it was 49 nM; in [4], 200 nM.

As to `Cc1nc(N)c(-c2nc(C(=O)NCCN(C)C)nn2C)nc1-c1cnn2ccccc12`, the IC50 in [3] worked out at 6 nM; in data set [4], 1500 nM.

`CO[C@H]1CC[C@H](NC(=O)c2nc(-c3nc(-c4cnc5ccccn45)c(C)nc3N)n(C)n2)CC1`: the IC50 in data set [3] is 22 nM; in data set [4], 16000 nM.

Compound `CNC(=O)c1nc(-c2nc(-c3cnc4ccccn34)c(C)nc2N)n(C)n1` displayed a solubility (thermodynamic) in data set [12] of 26 µM (≈ 9.45 µg/mL). In addition, the IC50 in data set [1] was 6 nM; in [2] it was 87 to 540 nM; in [3], 87 nM; in data set [4] it was 8400 nM; in data set [20], 43 nM; in [21], 16 nM. Also, the IC50 in data set [22] turned out to be 2800 nM; in data set [23], 16000 nM; in data set [24] it was 29000 nM. Besides, the pKa in [5] stood at 6.2. Also, the logD in data set [6] worked out at 1.8. Also, the Papp A→B in [8] stood at 6 ×10⁻⁶ cm/s. The same compound yielded a clearance in data set [9] of 11 mL/min/kg. In addition, the Vd turned out to be 0.9 L/kg in data set [10] and 0.8 L/kg in the data set with Canis familiaris. Also, the bioavailability in [11] came out at 46%; in data set [14], 60%. In data set [13], the apparent clearance (CL/F) came to 19 mL/min/kg. Moreover, the AUC in [15] turned out to be 36.2 µM·h. Besides, the Cmax in data set [16] came to 18 µM. Besides, in the data set with MCF7 [17], the inhibition in vivo at 50 mg/kg is 86%. Also, in the data set on MCF7 [18], the inhibition in vivo at 25 mg/kg came to 44%. In addition, the inhibition in vivo at 10 mg/kg with MCF7 [19] is 29%. For the same compound, the inhibition result in data set [25], in data set [26], in data set [27], in [28], in data set [29] and in data set [30] was “inactive” throughout. Moreover, the inhibition result in data set [31], in data set [32], in data set [33], in [34], in data set [35] and in data set [36] was “inactive” each time.

As for `CNC(=O)c1nc(-c2nc(-c3cnc4ccccn34)cnc2N)n(C)n1`, the IC50 in data set [1] turned out to be 20 nM; in data set [2], 1300 nM; in data set [3], 380 nM; in [4] it was 21000 nM.
